This passage reports IC50 results from US20260028365A1 (BIOGEN MA INC., priority 2022, published 2026).

The target in assay [1] is Tyk2 (Homo sapiens (Human), UniProt P29597). Put plainly: pSTAT4 Cell Assay (MSD, NK92 cells). Format: cell-based.
For assay [2], the target named is JH2 domain of human Tyk2 (Homo sapiens (Human), UniProt P29597). Put plainly: JH2 Biochemical Assay (TR-FRET probe displacement). Type of assay: binding.
Setting [3] is: JH2 domain of human Tyk2, TR-FRET probe displacement.
The mark [4] stands for this setting: TR-FRET probe displacement, JH2 domain of human Tyk2.
The mark [5] stands for this setting: TR-FRET probe displacement, JH2 domain.

Read-outs that look alike come from different tables or passages of the source.

JH2 domain of human Tyk2, sequence (P29597 575-876): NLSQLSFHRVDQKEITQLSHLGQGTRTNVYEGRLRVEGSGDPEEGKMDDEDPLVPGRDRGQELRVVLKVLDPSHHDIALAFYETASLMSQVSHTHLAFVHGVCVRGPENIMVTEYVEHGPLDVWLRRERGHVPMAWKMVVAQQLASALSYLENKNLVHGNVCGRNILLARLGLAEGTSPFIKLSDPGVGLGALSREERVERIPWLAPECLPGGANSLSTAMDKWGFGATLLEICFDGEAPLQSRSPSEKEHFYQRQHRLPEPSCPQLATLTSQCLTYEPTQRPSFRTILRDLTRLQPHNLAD
Tyk2, sequence (P29597 whole entry, the tested form may be a part): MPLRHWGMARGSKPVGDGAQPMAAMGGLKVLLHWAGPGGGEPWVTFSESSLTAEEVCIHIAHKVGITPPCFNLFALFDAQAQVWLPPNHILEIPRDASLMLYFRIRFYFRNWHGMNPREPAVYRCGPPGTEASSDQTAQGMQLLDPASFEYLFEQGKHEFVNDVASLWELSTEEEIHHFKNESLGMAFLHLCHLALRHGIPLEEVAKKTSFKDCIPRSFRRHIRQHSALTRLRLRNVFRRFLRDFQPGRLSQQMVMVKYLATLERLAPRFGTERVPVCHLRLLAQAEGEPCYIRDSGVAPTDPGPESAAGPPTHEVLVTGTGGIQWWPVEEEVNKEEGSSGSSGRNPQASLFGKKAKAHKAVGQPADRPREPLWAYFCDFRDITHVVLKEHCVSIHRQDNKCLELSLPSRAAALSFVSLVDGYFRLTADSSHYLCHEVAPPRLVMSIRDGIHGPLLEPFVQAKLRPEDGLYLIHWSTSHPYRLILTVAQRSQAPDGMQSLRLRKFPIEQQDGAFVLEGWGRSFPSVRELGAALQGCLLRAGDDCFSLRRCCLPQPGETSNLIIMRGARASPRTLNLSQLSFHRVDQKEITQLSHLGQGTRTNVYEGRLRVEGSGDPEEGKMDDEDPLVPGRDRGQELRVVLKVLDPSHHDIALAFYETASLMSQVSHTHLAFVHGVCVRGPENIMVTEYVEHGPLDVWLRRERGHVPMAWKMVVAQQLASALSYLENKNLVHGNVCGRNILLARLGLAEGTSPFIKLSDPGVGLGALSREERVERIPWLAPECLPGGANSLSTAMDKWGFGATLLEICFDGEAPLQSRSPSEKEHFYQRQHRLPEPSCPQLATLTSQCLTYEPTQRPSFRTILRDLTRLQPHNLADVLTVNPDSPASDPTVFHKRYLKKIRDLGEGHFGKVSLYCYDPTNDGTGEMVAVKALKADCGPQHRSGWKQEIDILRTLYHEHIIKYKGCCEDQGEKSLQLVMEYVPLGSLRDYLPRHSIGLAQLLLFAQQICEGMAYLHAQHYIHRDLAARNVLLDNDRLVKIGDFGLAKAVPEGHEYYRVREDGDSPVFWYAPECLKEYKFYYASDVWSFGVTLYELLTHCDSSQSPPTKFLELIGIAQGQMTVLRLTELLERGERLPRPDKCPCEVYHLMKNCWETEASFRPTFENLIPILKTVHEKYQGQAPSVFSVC

With `CC(=O)Nc1cc(Nc2cc(C)nc(C(C)(F)F)n2)c(-c2cncc(C3CC3)n2)cn1` [Example 667, N-(5-(6-cyclopropylpyrazin-2-yl)-4-((2-(1,1-difluoroethyl)-6-methylpyrimidin-4-yl)amino)pyridin-2-yl)acetamide], the figures for the concentration for half-maximal inhibition (IC50) in assay [1] (MSD) and in assay [2] (setting [3]) were 0.01 to 0.1 µM and at most 0.01 µM, respectively.
For the compound `CC(=O)Nc1cc(Nc2ccnc(C(C)(F)F)n2)c(OC2CC2)cn1` [Example 38, N-(5-cyclopropoxy-4-((2-(1,1-difluoroethyl)pyrimidin-4-yl)amino)pyridin-2-yl)acetamide], the concentration for half-maximal inhibition (IC50) in assay [1] (MSD) was 0.1 to 1 µM; in assay [2] (setting [4]), at most 0.01 µM.
Regarding `CCOc1cnc(NC(C)=O)cc1Nc1cc(O[C@H]2C[C@H](OC)C2)nc(C)n1` [Example 519, N-(5-ethoxy-4-((6-((1r,3r)-3-methoxycyclobutoxy)-2-methylpyrimidin-4-yl)amino)pyridin-2-yl)acetamide], the IC50 in assay [1] (MSD) and in assay [2] (setting [3]) was 0.1 to 1 µM each time.
`COc1cc(COc2cnc(NC(C)=O)cc2Nc2cc(C)nc(C(C)(F)F)n2)ncn1` [Example 346, N-(4-((2-(1,1-difluoroethyl)-6-methylpyrimidin-4-yl)amino)-5-((6-methoxypyrimidin-4-yl)methoxy)pyridin-2-yl)acetamide]: the IC50 is 0.01 to 0.1 µM in assay [1] (MSD) and at most 0.01 µM in assay [2] (setting [4]).
With `CC(=O)Nc1cc(Nc2ccnc(C(C)(F)F)n2)c(-c2cnc(N3C[C@@H]4C[C@H]3CO4)cn2)cn1` [Example 870, N-(5-(5-((1S,4S)-2-oxa-5-azabicyclo[2.2.1]heptan-5-yl)pyrazin-2-yl)-4-((2-(1,1-difluoroethyl)pyrimidin-4-yl)amino)pyridin-2-yl)acetamide], the values for the half-maximal inhibitory concentration (IC50) in assay [1] and in assay [2] (setting [5]) were 0.01 to 0.1 µM and at most 0.01 µM, respectively.
On to `CC(=O)Nc1cc(Nc2cc(C)nc(C(C)(F)F)n2)c(OCc2cccnc2C)cn1` [Example 469, N-(4-((2-(1,1-difluoroethyl)-6-methylpyrimidin-4-yl)amino)-5-((2-methylpyridin-3-yl)methoxy)pyridin-2-yl)acetamide], for which the figures for the IC50 in assay [1] (MSD) and in assay [2] (setting [3]) were 0.1 to 1 µM and at most 0.01 µM, respectively.
As for `CC(=O)Nc1cc(Nc2cc(C)nc(C(C)(F)F)n2)c(OCC23COCC(C2)C3)cn1` [Example 324, N-(5-((3-oxabicyclo[3.1.1]heptan-1-yl)methoxy)-4-((2-(1,1-difluoroethyl)-6-methylpyrimidin-4-yl)amino)pyridin-2-yl)acetamide], the IC50 in assay [1] (MSD) is 0.01 to 0.1 µM; in assay [2] (setting [4]), at most 0.01 µM.
In the case of `COc1cnn(-c2cnc(NC(C)=O)cc2Nc2ccnc(C(C)(F)F)n2)c1` [Example 730, N-(4-((2-(1,1-difluoroethyl)pyrimidin-4-yl)amino)-5-(4-methoxy-1H-pyrazol-1-yl)pyridin-2-yl)acetamide], the results for the IC50 in assay [1] (MSD) and in assay [2] (setting [3]) were 0.1 to 1 µM and 0.01 to 0.1 µM, respectively.
In the case of `CC(=O)Nc1cc(Nc2cc(C)nc(C(C)(F)F)n2)c(-c2csc(N(C)C)n2)cn1` [Example 271, N-(4-((2-(1,1-difluoroethyl)-6-methylpyrimidin-4-yl)amino)-5-(2-(dimethylamino)thiazol-4-yl)pyridin-2-yl)acetamide], the IC50 in assay [1] (MSD) and in assay [2] (setting [4]) was at most 0.01 µM throughout.
For `CCc1cc(Nc2cc(NC(C)=O)ncc2-c2cnccn2)nc(C(C)(F)F)n1` [Example 823, N-(4-((2-(1,1-difluoroethyl)-6-ethylpyrimidin-4-yl)amino)-5-(pyrazin-2-yl)pyridin-2-yl)acetamide], the IC50 was 0.01 to 0.1 µM in assay [1] and at most 0.01 µM in assay [2] (setting [5]).
Taken in the same sequence, the figures for `CC(=O)Nc1cc(Nc2ccnc(C(C)(F)F)n2)c(-c2ccc(CN3C[C@H]4C[C@@H]3CO4)cn2)cn1` (racemic) [Example 884, rac-N-(5-(((1R,4R)-2-oxa-5-azabicyclo[2.2.1]heptan-5-yl)methyl)-4′-((2-(1,1-difluoroethyl)pyrimidin-4-yl)amino)-[2,3′-bipyridin]-6′-yl)acetamide] were at most 0.01 µM and at most 0.01 µM.
Take `CC(=O)Nc1cc(Nc2cccc(C(C)(F)F)n2)c(-c2ccnc(C)n2)cn1` [Example 172, N-(4-((6-(1,1-difluoroethyl)pyridin-2-yl)amino)-5-(2-methylpyrimidin-4-yl)pyridin-2-yl)acetamide]: the IC50 in assay [1] (MSD) and in assay [2] (setting [4]) was at most 0.01 µM throughout.
With `CCc1cc(Nc2cc(NC(C)=O)ncc2-c2cnc(CN3C[C@@H]4C[C@H]3CO4)cn2)nc(C(C)(F)F)n1` [Example 894, N-(5-(5-(((1S,4S)-2-oxa-5-azabicyclo[2.2.1]heptan-5-yl)methyl)pyrazin-2-yl)-4-((2-(1,1-difluoroethyl)-6-ethylpyrimidin-4-yl)amino)pyridin-2-yl)acetamide], the IC50 in assay [1] and in assay [2] (setting [5]) was at most 0.01 µM throughout.
On to `CC(=O)Nc1cc(Nc2cc(C)nc(C(C)(F)F)n2)c(OCC2(F)CC2)cn1` [Example 99, N-(4-((2-(1,1-difluoroethyl)-6-methylpyrimidin-4-yl)amino)-5-((1-fluorocyclopropyl)methoxy)pyridin-2-yl)acetamide], for which the IC50 in assay [1] (MSD) and in assay [2] (setting [4]) was at most 0.01 µM each time.
As for `CCc1cc(Nc2cc(NC(C)=O)ncc2-c2cnc(CN3CCCC3)cn2)nc(C(C)(F)F)n1` [Example 893, N-(4-((2-(1,1-difluoroethyl)-6-ethylpyrimidin-4-yl)amino)-5-(5-(pyrrolidin-1-ylmethyl)pyrazin-2-yl)pyridin-2-yl)acetamide], the IC50 in assay [1] and in assay [2] (setting [5]) was at most 0.01 µM in each case.
For `CC(=O)Nc1cc(Nc2cc(C)nc(C(C)(F)F)n2)c(-c2nccs2)cn1` [Example 605, N-(4-((2-(1,1-difluoroethyl)-6-methylpyrimidin-4-yl)amino)-5-(thiazol-2-yl)pyridin-2-yl)acetamide], the figures for the IC50 in assay [1] (MSD) and in assay [2] (setting [3]) were 0.01 to 0.1 µM and at most 0.01 µM, respectively.
Consider `CNC(=O)Nc1cc(Nc2ccnc(C(C)(F)F)n2)c(-c2cc3n(n2)CCN(C)C3)cn1` [Example 794, 1-(4-((2-(1,1-difluoroethyl)pyrimidin-4-yl)amino)-5-(5-methyl-4,5,6,7-tetrahydropyrazolo[1,5-a]pyrazin-2-yl)pyridin-2-yl)-3-methylurea], for which the IC50 in assay [1] and in assay [2] (setting [5]) was at most 0.01 µM throughout.
Consider `CC(=O)Nc1cc(Nc2cc(C)nc(C(C)(F)F)n2)c(-c2ccc(C)cn2)cn1` [Example 593, N-(4′-((2-(1,1-difluoroethyl)-6-methylpyrimidin-4-yl)amino)-5-methyl-[2,3′-bipyridin]-6′-yl)acetamide], for which the 50% inhibitory concentration (IC50) in assay [1] (MSD) and in assay [2] (setting [3]) was at most 0.01 µM each time.
Consider `CC(=O)Nc1cc(Nc2cc(C)nc(C(C)(F)F)n2)c(-c2cc(NC(C)C)cnn2)cn1` [Example 254, N-(4-((2-(1,1-difluoroethyl)-6-methylpyrimidin-4-yl)amino)-5-(5-(isopropylamino)pyridazin-3-yl)pyridin-2-yl)acetamide], for which the IC50 in assay [1] (MSD) and in assay [2] (setting [4]) was at most 0.01 µM each time.
With `CC(=O)Nc1cc(Nc2ccnc(C(C)(F)F)n2)c(-c2cc(C)c(C#N)cn2)cn1` [Example 701, N-(5-cyanO4′-((2-(1,1-difluoroethyl)pyrimidin-4-yl)amino)-4-methyl-[2,3′-bipyridin]-6′-yl)acetamide], the IC50 in assay [1] (MSD) and in assay [2] (setting [3]) was at most 0.01 µM in each case.
As for `CCc1cc(Nc2cc(NC(C)=O)ncc2OCCCF)nc(C(C)(F)F)n1` [Example 405, N-(4-((2-(1,1-difluoroethyl)-6-ethylpyrimidin-4-yl)amino)-5-(3-fluoropropoxy)pyridin-2-yl)acetamide], the 50% inhibitory concentration (IC50) is 0.01 to 0.1 µM in assay [1] (MSD) and at most 0.01 µM in assay [2] (setting [3]).
On to `CC(=O)Nc1cc(Nc2cc(C)nc(C(C)(F)F)n2)c(OCC2CC(=O)N(C)C2)cn1` (centres unmarked) [Example 511, N-(4-((2-(1,1-difluoroethyl)-6-methylpyrimidin-4-yl)amino)-5-((1-methyl-5-oxopyrrolidin-3-yl)methoxy)pyridin-2-yl)acetamide], for which the IC50 in assay [1] (MSD) lay within 0.1 to 1 µM; in assay [2] (setting [3]) it was 0.01 to 0.1 µM.
Turning to `CC(=O)Nc1cc(Nc2cc(C)nc(C(C)(C)F)n2)c(-c2ccn3nccc3n2)cn1` [Example 538, N-(4-((2-(2-fluoropropan-2-yl)-6-methylpyrimidin-4-yl)amino)-5-(pyrazolo[1,5-a]pyrimidin-5-yl)pyridin-2-yl)acetamide], the IC50 in assay [1] (MSD) and in assay [2] (setting [3]) was at most 0.01 µM in each case.
Turning to `CC(=O)Nc1cc(Nc2cc(C)nc(C(C)(C)F)n2)c(-c2cn3c(n2)COCC3)cn1` [Example 531, N-(5-(5,6-dihydrO8H-imidazo[2,1-c][1,4]oxazin-2-yl)-4-((2-(2-fluoropropan-2-yl)-6-methylpyrimidin-4-yl)amino)pyridin-2-yl)acetamide], the concentration for half-maximal inhibition (IC50) in assay [1] (MSD) and in assay [2] (setting [3]) was at most 0.01 µM in each case.
Turning to `CC(=O)Nc1cc(Nc2cc(C)nc(C(C)(F)F)n2)c(-c2ccccn2)cn1` [Example 591, N-(4′-((2-(1,1-difluoroethyl)-6-methylpyrimidin-4-yl)amino)-[2,3′-bipyridin]-6′-yl)acetamide], the half-inhibitory concentration (IC50) in assay [1] (MSD) and in assay [2] (setting [3]) was at most 0.01 µM throughout.
As for `COCCN(C)c1nc(-c2cnc(NC(C)=O)cc2Nc2cc(C)nc(C(C)(F)F)n2)cs1` [Example 772, N-(4-((2-(1,1-difluoroethyl)-6-methylpyrimidin-4-yl)amino)-5-(2-((2-methoxyethyl)(methyl)amino)thiazol-4-yl)pyridin-2-yl)acetamide], the IC50 in assay [1] and in assay [2] (setting [5]) was at most 0.01 µM in each case.
Take `CCOc1cnc(NC(C)=O)cc1Nc1cc(Cl)nc(C(C)(F)F)n1` [Example 372, N-(4-((6-chloro-2-(1,1-difluoroethyl)pyrimidin-4-yl)amino)-5-ethoxypyridin-2-yl)acetamide]: the values for the IC50 in assay [1] (MSD) and in assay [2] (setting [3]) were 0.01 to 0.1 µM and at most 0.01 µM, respectively.
As to `CCn1cc(-c2cc(Nc3cc(NC(C)=O)ncc3OC)nc(C(C)(F)F)n2)cn1` [Example 97, N-(4-((2-(1,1-difluoroethyl)-6-(1-ethyl-1H-pyrazol-4-yl)pyrimidin-4-yl)amino)-5-methoxypyridin-2-yl)acetamide], the IC50 in assay [1] (MSD) and in assay [2] (setting [4]) was 0.01 to 0.1 µM throughout.
